Here are results for three compounds from US7772209B2, “Antifolate combination therapies” (Eli Lilly and Company, priority 2000, dated 2010).

Data set [1] relates to human MX-1 breast carcinoma. The experiment in a line: Tumor growth delay in human MX-1 breast carcinoma xenograft in female nude mice. It is filed as in vivo. As to the method: To assess the effect of a methylmalonic acid lowering agent, alone or in combination with folic acid on the antitumor efficacy of an antifolate in a human tumor xenograft model, female nude mice bearing human MX-1 breast carcinoma were treated with ALIMTA alone or along with super-physiologic doses of folic acid or vitamin B12 (cobalamin).
(§1) The animals were maintained on sterilized standard lab chow ad libitum and sterilized water ad libitum. The human MX-1 tumor cells (5×10^6) obtained from donor tumors were implanted subcutaneously in a thigh of female nude mice 8- to 10-weeks old. Beginning on day 7 post tumor cell implantation, the animals were treated with ALIMTA (100 mg/kg or 150 mg/kg) once daily on days 7 through 11 and 14 through 18 by intraperitoneal injection alone or along with folic acid (6 mg/kg or 60 mg/kg) and/or vitamin B12 (165 mg/kg) by intraperitoneal injection on the same schedule.
(§2) Tumor response was monitored by tumor volume measurements twice weekly over the course of the experiment. Toxicity was monitored by body weight measurements made at the same time as the tumor volume measurements. Tumor growth delay was the difference in days for the treated and the controls tumors to reach 1000 mm^3.
A general note: In xenograft studies the graft and the host belong to different species.

Data set [2] can be described thus: Body weight as general measure of toxicity in MX-1 tumor-bearing nude mice. The method, then:
as §1, §2
Body weight was used as a general measure of toxicity for each of the treatment regimens. The body weight loss pattern reflected the treatment regimens with weight decrease during the treatment times of days 7 through 11 and 14 through 18 with some weight recovery during the intervening two days. The weight loss due to ALITMA was dose dependent but overall minor (3%).

The nature of data set [3]: Clinical response to chemotherapy in chemonaive patients. Format: in vivo, human. To be noted: responders out of group size. An excerpt:
Additionally, sixty-two chemonaive patients requiring chemotherapeutic treatment were divided into two groups.

For data set [4] the following is noted: grade 3/4 toxic events, N = 246, not supplemented.
Procedure: One to two weeks prior to administration of ALIMTA urine is collected and blood is drawn from a human subject; and vitamin metabolite levels, methylmalonic acid and homocysteine, are determined. Homocysteine levels are determined in blood by a fluorescent polarization immunoassay kit manufactured by Abbot Laboratories. Methylmalonic acid levels are determined by urine levels using a 24 hour urine collection kit available from Biolab Medical Unit (a United Kingdom company). Additionally urine and blood may be collected one week prior to administration of ALIMTA (after at least 5 days of folic acid supplementation and at least 1 week vitamin B12 supplementation), and up to 4 days prior to every cycle.
For purposes of this study, patients should take oral folic acid daily beginning approximately 1 to 3 weeks before treatment with ALIMTA plus cisplatin or cisplatin alone and continuing daily until discontinuation from study therapy.
Vitamin B12 will be obtained and administered as a 1000 μg intramuscular injection. A vitamin B12 injection must be administered approximately 1 to 3 weeks before treatment with ALIMTA and should be repeated approximately every 9 weeks until the patient discontinues from study therapy.
Folic acid supplementation, 350-600 μg or equivalent should be taken orally daily beginning approximately 1 to 3 weeks prior to the first dose of MTA plus cisplatin and continue daily until the patient discontinues from study therapy. A vitamin B12 injection, 1000 μg, must be given intramuscularly approximately 1 to 3 weeks prior to the first dose of ALIMTA and should be repeated approximately every 9 weeks until the patient discontinues from study therapy.
The data to be compared are: • 1) Patient numbers and baseline demographic data for those supplemented from baseline. • 2) Homocysteine and methylmalonic acid levels, levels at baseline, prior to first dose, prior to second dose, and prior to each therapy cycle depending of the type of cancer under study. • 3) Grade 3 and 4 hematologic toxicity in these fully supplemented patients. • 4) Grade 3 and 4 nonhematologic toxicity in these fully supplemented patients.
Cyanocobalamin is used as the methylmalonic acid lowering agent in these studies.

With `Nc1nc2[nH]cc(CCc3ccc(C(=O)N[C@@H](CCC(=O)O)C(=O)O)cc3)c2c(=O)[nH]1` [ALIMTA, pemetrexed disodium], in data set [1] (ALIMTA 100 mg/kg ip once daily days 7-11 and 14-18, alone, time to reach 1000 mm^3 vs controls), the Tumor growth delay is listed as 17 days. Besides, the Tumor growth delay in data set [1] (ALIMTA 150 mg/kg ip once daily days 7-11 and 14-18, alone) came to 21 days. The compound further yielded a Body weight loss in data set [2] (mouse, in vivo) of 3%. Further, the “Patients who responded to the chemotherapy” value in data set [3] was 1 out of 17. Moreover, in data set [4], the “Percent of occurrences prior to B12/folic acid treatment: Diarrhea” value stood at 6%, the “Percent of occurrences prior to B12/folic acid treatment: Hematologic Toxicity/Non-Hematologic Toxicity” value amounted to 37%, the “Percent of occurrences prior to B12/folic acid treatment: Mucositis” value turned out to be 5% and the “Percent of occurrences prior to B12/folic acid treatment: Neutropenia” value is reported as 32%. Further, in data set [4], the “Percent of occurrences prior to B12/folic acid treatment: Neutropenia and Diarrhea” value is listed as 3%; the “Percent of occurrences prior to B12/folic acid treatment: Neutropenia and Infection” value amounted to 2%; the “Percent of occurrences prior to B12/folic acid treatment: Neutropenia and Mucositis” value is 3%.
`Nc1nc2ncc(CNc3ccc(C(=O)N[C@@H](CCC(=O)O)C(=O)O)cc3)nc2c(=O)[nH]1` [Folic acid, folic acid]: the Tumor growth delay turned out to be 7 days in data set [1] (folic acid 6 mg/kg ip alone, same schedule) and 12 days in data set [1] (folic acid 60 mg/kg ip alone, same schedule).
For vitamin B12, the Tumor growth delay in data set [1] (vitamin B12 165 mg/kg ip alone, same schedule) is recorded as 12 days. In addition, in data set [2] (vitamin B12 administration), the Body weight change result was “did not prevent weight gain”.
